The values that follow come from patent publication US11773071B2, “Benzothiazepine compounds and their use as bile acid modulators” (Albireo AB, priority 2019, dated 2023).

By IC50 is commonly meant the concentration that gives 50% inhibition.

One test deals with T1, Human LBAT (Homo sapiens, UniProt Q14973).
T1 construct: expressed in transfected cells; Geneticin-selected
T1 sequence (Q14973 1-349): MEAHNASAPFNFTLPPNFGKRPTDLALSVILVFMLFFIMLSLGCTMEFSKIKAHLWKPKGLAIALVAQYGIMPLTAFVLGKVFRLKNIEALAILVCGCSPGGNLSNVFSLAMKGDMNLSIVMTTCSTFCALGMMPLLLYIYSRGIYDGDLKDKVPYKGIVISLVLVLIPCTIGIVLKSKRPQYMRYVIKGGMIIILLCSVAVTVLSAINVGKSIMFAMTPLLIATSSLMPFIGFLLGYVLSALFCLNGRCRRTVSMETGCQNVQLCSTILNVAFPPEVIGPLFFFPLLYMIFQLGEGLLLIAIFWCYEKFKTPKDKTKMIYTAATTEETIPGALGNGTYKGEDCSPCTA
The experiment in a line: LBAT (h/m) assay, human LBAT-overexpressing cells, 3H-taurocholic acid uptake. Format: cell-based. The conditions noted are these: 0.3 μM 3H-taurocholic acid and 7.5 μM cold taurocholic acid, 20 minutes, read-out: hLBAT IC50. The method, then: LBAT (h/m) Assay Protocol
20,000 cells (Human or Mouse LBAT-overexpressing cells) were seeded in 96-wells plate (Corning CLS3809) in 100 μL MEM-alpha medium (Gibco 12571-063) supplemented with 10% FBS (Gibco 10438026) containing Geneticin (Gibco 10131-027) (1 mg/mL) and incubated at 37° C. in 5% CO2 for 24 hours. After incubation, media was decanted from the wells and cells were washed two times with 300 μL of basal MEM-alpha medium (FBS-free). After decanting basal MEM-alpha medium each time, plates were tapped against paper towel to ensure maximum removal of residual media.
For human LBAT, incubation mix was prepared by adding test inhibitor dilutions (3-fold serial dilution in DMSO (Sigma D2650), 10 points) in MEM-alpha (without FBS) containing 0.3 μM 3H-taurocholic acid (ARC ART-1368) and 7.5 μM cold taurocholic acid (Sigma T4009) (maintaining 0.2% final DMSO concentration). For mouse LBAT, incubation mix was prepared by adding test inhibitor dilutions (3-fold serial dilution in DMSO, 10 points) in MEM-alpha (without FBS) containing 0.3 μM 3H-taurocholic acid and 25 μM cold taurocholic acid maintaining 0.2% final DMSO concentration). 50 μL of incubation mix containing test inhibitors was then added to the wells (in duplicate) and the plates were incubated for 20 minutes in a CO2 incubator at 37° C. After incubation, the reaction was stopped by keeping the plates on ice water mix for 2-3 minutes and then the incubation mix was aspirated completely from the wells. The wells were washed two times with 250 μL of chilled unlabelled 1 mM taurocholic acid dissolved in HEPES (Gibco 15630080)-buffered (10 mM) HBSS (Gibco 14175079) (pH 7.4). The plates were tapped against a paper towel after every wash to ensure maximum removal of blocking buffer. 100 μL of MicroScint-20 (PerkinElmer 6013621) was added to the wells and kept overnight at room temperature before reading the plates in TopCount NXT™ Microplate Scintillation and Luminescence Counter from PerkinElmer under 3H Test protocol (set at 120 seconds reading time per well, with normal plate orientation).
(§1) Preparation of Test Compound Dilutions
(§2) All test compounds were provided in powder form at room temperature. 10 mM DMSO stocks of the test compounds were prepared, aliquoted and stored at −20° C. From the 10 mM DMSO stock of the compounds, a 3-fold serial dilution in DMSO was prepared to get a total of 10 dilutions of the test compounds. 0.5 μL of this dilution in DMSO was added to 250 μL of FBS-free basal media containing 3H-taurocholic acid and cold taurocholic acid to prepare the incubation mixture.

Another test has as its target T2, Human IBAT (Homo sapiens, UniProt Q12908).
T2 construct: expressed in transfected cells; Puromycin-selected
T2 sequence (Q12908 1-348): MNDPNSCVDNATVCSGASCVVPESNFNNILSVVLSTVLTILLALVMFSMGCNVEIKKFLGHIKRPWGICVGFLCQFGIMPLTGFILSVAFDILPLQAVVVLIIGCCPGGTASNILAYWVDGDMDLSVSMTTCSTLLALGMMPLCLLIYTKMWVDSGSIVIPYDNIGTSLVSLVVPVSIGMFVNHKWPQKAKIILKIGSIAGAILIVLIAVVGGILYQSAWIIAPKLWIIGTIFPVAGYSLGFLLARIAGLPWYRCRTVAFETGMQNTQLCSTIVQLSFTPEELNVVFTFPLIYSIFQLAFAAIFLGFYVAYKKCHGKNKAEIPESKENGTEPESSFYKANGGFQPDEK
The experiment in a line: IBAT (h/m) assay, human IBAT-overexpressing cells, 3H-taurocholic acid uptake. The test is classed as cell-based. The conditions noted are these: 0.25 μM 3H-taurocholic acid and 5 μM cold taurocholic acid, 20 minutes, read-out: hIBAT IC50. The method, then:
IBAT (h/m) Assay Protocol
10,000 cells (Human or Mouse IBAT-overexpressing cells) were seeded in 96-wells plate (Corning CLS3809) in 200 μL MEM-alpha medium (Gibco 12571-063) supplemented with 10% FBS (Gibco 10438026) containing Puromycin (Gibco A1113803) (10 μg/mL) and incubated at 37° C. in 5% CO2 for 48 hours. After incubation, media was decanted from the wells and cells were washed two times with 300 μL of basal MEM-alpha medium (FBS-free). After decanting basal MEM-alpha medium each time, plates were tapped against paper towel to ensure maximum removal of residual media. Test inhibitor dilutions (highest test concentration being 10 μM, 3-fold serial dilution, 10 points) prepared in DMSO (Sigma D2650) were added in incubation mix (maintaining 0.2% final DMSO concentration) containing 0.25 μM 3H-taurocholic acid (ARC ART-1368) and 5 μM of cold taurocholic acid (Sigma T4009). 50 μL of incubation mix containing test inhibitors was then added to the wells (in duplicate) and the plates were incubated for 20 minutes in a CO2 incubator at 37° C. After incubation, the reaction was stopped by keeping the plates on ice water mix for 2-3 minutes and then the incubation mix was aspirated completely from the wells. The wells were washed two times with 250 μL of chilled unlabelled 1 mM taurocholic acid dissolved in HEPES (Gibco 15630080)-buffered (10 mM) HBSS (Gibco 14175079) (pH 7.4). The plates were tapped against a paper towel after every wash to ensure maximum removal of blocking buffer.
100 μL of MicroScint-20 (PerkinElmer 6013621) was added to the wells and kept overnight at room temperature before reading the plates in TopCount NXT™ Microplate Scintillation and Luminescence Counter from PerkinElmer under 3H Test protocol (set at 120 seconds reading time per well).
as §1, §2

SMILES strings stand for the structures.

As for `CCCCC1(CC)CN(c2ccccc2)c2cc(SC)c(OCC(C)(F)C(=O)O)cc2S(=O)(=O)C1` (single isomer, unassigned) [35, diastereomer 2], the IC50 was determined as 138 nM at Human LBAT and 13 nM at Human IBAT.

Turning to `CCCCC1(CC)CN(c2ccccc2)c2cc(OC)c(OCCC(=O)O)cc2S(=O)(=O)C1` (racemic) [Example 43, 3-((3-butyl-3-ethyl-7-methoxy-1,1-dioxido-5-phenyl-2,3,4,5-tetrahydro-1,5-benzothiazepin-8-yl)oxy)propanoic acid], the IC50 was greater than 20000 nM on Human LBAT and 44 nM on Human IBAT.

Take `CCCCC1(CC)CN(c2ccccc2)c2cc(SC)c(OCC(O)C(=O)O)cc2S(=O)(=O)C1` (single isomer, unassigned) [40, diastereomer 4]: the IC50 was found to be 389 nM on Human LBAT and 10 nM on Human IBAT.

Regarding `CCCCC1(C)CN(c2ccccc2)c2cc(SC)c(OC[C@H](O)C(=O)O)cc2S(=O)(=O)C1` (single isomer, unassigned) [Example 32, 3-((3-butyl-3-methyl-7-(methylthio)-1,1-dioxido-5-phenyl-2,3,4,5-tetrahydro-1,5-benzothiazepin-8-yl)oxy)-2-hydroxypropanoic acid], the results for the IC50 on Human LBAT and on Human IBAT were 2260 nM and 8 nM, respectively.

As for `CCCCC1(CC)CN(c2ccc(F)cc2)c2cc(SC)c(OCC(O)C(=O)O)cc2S(=O)(=O)C1` (single isomer, unassigned) [42, diastereomer 1], the half-inhibitory concentration (IC50) at Human LBAT came out at 1290 nM; at Human IBAT, 19 nM.

`CCCCC1(CC)CN(c2ccccc2)c2cc(SC)c(OCC(C)(O)C(=O)O)cc2S(=O)(=O)C1` (single isomer, unassigned) [48, diastereomer 1]: the IC50 on Human LBAT was found to be 1190 nM; on Human IBAT it was 56 nM.

For `CCCCC1(CC)CN(c2ccccc2)c2cc(Cl)c(OC(C)CC(=O)O)cc2S(=O)(=O)C1` (single isomer, unassigned) [30, diastereomers 1 and 2], the values for the IC50 at Human LBAT and at Human IBAT were 247 nM and 36 nM, respectively.

Regarding `CCCCC1(CCCC)CN(c2ccccc2)c2cc(Cl)c(OCCC(=O)O)cc2S(=O)(=O)C1` [Example 8, 3-((3,3-Dibutyl-7-chloro-1,1-dioxido-5-phenyl-2,3,4,5-tetrahydro-1,5-benzothiazepin-8-yl)oxy)propanoic acid], the IC50 at Human LBAT amounted to 376 nM; at Human IBAT, 74 nM.

For `CCCCC1(C)CN(c2ccccc2)c2cc(N(C)C)c(OCCC(=O)O)cc2S(=O)(=O)C1` (single isomer, unassigned) [29, enantiomer 2], the results for the IC50 on Human LBAT and on Human IBAT were 3310 nM and 57 nM, respectively.

`CCCCC1(CC)CN(c2ccc(F)cc2)c2cc(SC)c(OCC(O)C(=O)O)cc2S(=O)(=O)C1` (stereo not drawn) [Example 41, 3-((3-Butyl-3-ethyl-5-(4-fluorophenyl)-7-(methylthio)-1,1-dioxido-2,3,4,5-tetrahydro-1,5-benzothiazepin-8-yl)oxy)-2-hydroxypropanoic acid]: the IC50 on Human LBAT came to 495 nM; on Human IBAT it was 3 nM.

As for `CCCCC1(CCCC)CN(c2ccc(F)c(F)c2)c2cc(SC)c(OCCC(=O)O)cc2S(=O)(=O)C1` [Example 25, 3-((3,3-dibutyl-5-(3,4-difluorophenyl)-7-(methylthio)-1,1-dioxido-2,3,4,5-tetrahydro-1,5-benzothiazepin-8-yl)oxy)propanoic acid], the IC50 at Human LBAT was 922 nM; at Human IBAT, 18 nM.

Turning to `CCCCC1(CC)CN(c2ccccc2)c2cc(Cl)c(OCCC(=O)O)cc2S(=O)(=O)C1` (single isomer, unassigned) [Example 7, 3-((3-butyl-7-chloro-3-ethyl-1,1-dioxido-5-phenyl-2,3,4,5-tetrahydro-1,5-benzothiazepin-8-yl)oxy)propanoic acid], the half-inhibitory concentration (IC50) at Human LBAT came out at 969 nM; at Human IBAT, 418 nM.

Regarding `CCCCC1(CC)CN(c2ccccc2)c2cc(OC)c(OCCC(=O)O)cc2S(=O)(=O)C1` (single isomer, unassigned) [44, enantiomer 1], the IC50 on Human LBAT is greater than 20000 nM; on Human IBAT, 46 nM.

On to `CCCCC1(CC)CN(c2ccccc2)c2cc(Cl)c(OCCC(=O)O)cc2S(=O)(=O)C1` (racemic) [Example 5, 3-((3-Butyl-7-chloro-3-ethyl-1,1-dioxido-5-phenyl-2,3,4,5-tetrahydro-1,5-benzothiazepin-8-yl)oxy)propanoic acid], for which the IC50 on Human LBAT was determined as 791 nM; on Human IBAT, 35 nM.

In the case of `CCCCC1(C)CN(c2ccccc2)c2cc(SC)c(OCCC(=O)O)cc2S(=O)(=O)C1` (single isomer, unassigned) [Example 23, 3-((3-butyl-3-methyl-7-(methylthio)-1,1-dioxido-5-phenyl-2,3,4,5-tetrahydro-1,5-benzothiazepin-8-yl)oxy)propanoic acid], the results for the IC50 on Human LBAT and at Human IBAT were 182 nM and 334 nM, respectively.

Take `CCCCC1(CC)CN(c2ccccc2)c2cc(SC)c(OCC(O)C(=O)O)cc2S(=O)(=O)C1` (single isomer, unassigned) [40, diastereomer 3]: the figures for the IC50 at Human LBAT and on Human IBAT were 665 nM and 2 nM, respectively.

Consider `CCCCC1(CCCC)CN(c2ccccc2)c2cc(OC)c(OCCC(=O)O)cc2S(=O)(=O)C1` [Example 45, 3-((3,3-Dibutyl-7-methoxy-1,1-dioxido-5-phenyl-2,3,4,5-tetrahydro-1,5-benzothiazepin-8-yl)oxy)propanoic acid], for which the results for the concentration for half-maximal inhibition (IC50) on Human LBAT and at Human IBAT were greater than 6670 nM and 11 nM, respectively.

As to `CCCCC1(C)CN(c2ccccc2)c2cc(SC)c(OCC(O)C(=O)O)cc2S(=O)(=O)C1` (stereo not drawn) [Example 31, 3-((3-butyl-3-methyl-7-(methylthio)-1,1-dioxido-5-phenyl-2,3,4,5-tetrahydro-1,5-benzothiazepin-8-yl)oxy)-2-hydroxypropanoic acid], the IC50 was 359 nM at Human LBAT and 10 nM at Human IBAT.
